The source of these data is patent US10927086B2, “Substituted sulfoximine compounds as indoleamine 2,3-dioxygenase (IDO) inhibitors” (Merck Sharp & Dohme Corp., priority 2017, dated 2021).

The target of experiment [1] is T1, IDO1 (Homo sapiens (Human), UniProt P14902). The experiment is described as follows: IDO1 Enzyme Assay. The format is biochemical. Conditions: HIS-tagged recombinant IDO1, fluorescence readout. Here is the method:
Compounds to be tested were serially diluted in ten 3-fold steps in DMSO starting from 10 mM DMSO stocks. Compound dilutions or DMSO alone were then dispensed from the dilution plate into a Greiner black 384-well assay plate (catalog #781086) using an Echo 555 acoustic liquid handler (Labcyte).
HIS-tagged IDO1 protein was recombinantly expressed in Escherichia coli using ZYP5052 autoinduction media supplemented with 500 μM delta aminolevulinic acid for 48 h at 16° C. IDO1 protein was purified using Ni^2+-affinity resin and size exclusion chromatography. Purified protein was then diluted in assay buffer (50 mM Tris pH 7.0, 1% glycerol, 20 μM methylene blue, 0.05% Tween-20, 20 mM sodium ascorbate, 100 units/mL catalase to obtain a final IDO1 concentration of 40 nM. IDO1 solution […] or buffer alone ([…]) were dispensed to wells of the assay plate using a BioRAPTR liquid dispenser (Beckman Coulter). Assay plates containing compound and IDO1 enzyme were incubated at RT for 30 min. Afterwards, 10 μL of 400 μM tryptophan in assay buffer were added to each well of the assay plate using a BioRAPTR liquid dispenser. Plates were incubated at RT for 60 min and reactions were quenched by addition of 10 μL of 0.5 M methyl isonipecotate in dimethyl sulfoxide. Plates were sealed and incubated at 37° C. for 4 h or 50° C. for 2 h. The plates are allowed to cool and then centrifuged for 1 min at 1000×g. The resulting fluoresence was measured in an Envision plate reader (Perkin Elmer) with a 400/25 nm excitation filter and an 510/20 nm emission filter.
Potencies were calculated by linear least squares fit to the four parameter logistic IC50 equation.
Target sequence in this assay (P14902 whole entry, species assumed): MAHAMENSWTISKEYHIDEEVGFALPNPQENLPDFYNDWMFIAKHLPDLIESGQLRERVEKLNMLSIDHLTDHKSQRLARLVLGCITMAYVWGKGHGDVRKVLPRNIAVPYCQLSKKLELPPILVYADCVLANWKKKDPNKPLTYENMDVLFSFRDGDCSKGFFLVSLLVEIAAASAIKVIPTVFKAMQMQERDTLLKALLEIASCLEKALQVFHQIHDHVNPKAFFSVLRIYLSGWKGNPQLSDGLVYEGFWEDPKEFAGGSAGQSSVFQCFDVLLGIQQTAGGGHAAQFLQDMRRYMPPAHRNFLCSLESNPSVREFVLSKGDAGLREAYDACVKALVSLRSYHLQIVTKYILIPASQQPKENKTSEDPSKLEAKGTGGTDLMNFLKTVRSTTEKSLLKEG

Experiment [2] deals with T1, IDO1. As to the kind of experiment: IDO1 Cellular Assay in Hela Cells Stimulated with IFNγ. Format: cell-based. Conditions: about 48 hours, read-out: IDO1 HELA Cell Assay, IC50. Here is the method: Hela cells were cultured in complete Hela culture medium (90% EMEM, 10% heat-inactivated fetal bovine serum) and expanded to about 1×10^9 cells. The cells were then collected and frozen down at 10×10^6 cells/vial in 1 mL frozen medium (90% complete Hela culture medium, 10% DMSO)
Compounds to be tested were serially diluted in ten 3-fold steps in DMSO starting from 10 mM DMSO stocks in Echo low volume plate(s). Compound dilutions or DMSO alone were then dispensed from the dilution plate(s) into Greiner black 384-well assay plate(s) (catalog #781086, 50 nL/well) using an Echo 550 acoustic liquid handler (Labcyte).
Frozen Hela cells were thawed and transferred into Hela assay medium (99% complete Hela culture medium, 1% Pen/Strep) with 20 mL medium/vial of cells. The cells were spun down at 250 g in a table top centrifuge for 5 min and suspended in same volume of Hela assay medium. The cells were then counted and adjusted to a density of 2×10^5 cells/ml in Hela assay medium. Sterile L-tryptophan were added to the cells with final concentration of 300 uM L-tryptophan. A small aliquot (2 mL/plate) of Hela cells were set aside and were not treated with IFNγ, to serve as the Max-E control. The rest of Hela cells were added with sterile IFNγ (Cat #285-IF, R & D systems) with a final concentration of 100 ng/mL.
Hela cells with and without IFNγ were dispensed to the respective wells of 384-well assay plates containing the compounds. The plates were incubated for about 48 hours at a 37° C., 5% CO2 incubator. Afterwards, 12 μL of 0.5 M methyl isonipecotate in dimethyl sulfoxide were added into each well and the plates were sealed and incubated at 37° C. without CO2 overnight. The plates were centrifuged for 1 min at 200×g. The resulting fluorescence was measured in a Spectramax plate reader (Molecular Devices) with a 400 nm excitation filter and a 510 nm emission filter.
The fluorescence intensity of each well was corrected for the background observed in wells with non-IFNγ-treated cells and was expressed as a fraction of the intensity observed in wells of IFNγ-treated cells and DMSO only. Potencies were calculated by linear least squares fit to the four parameter logistic IC50 equation.
Target sequence in this assay (P14902 whole entry): as the sequence (P14902 whole entry, species assumed) above

Usually IC50 stands for the concentration that inhibits the measured activity by half.

On to `N=S(=O)(CCO)CCNc1nonc1/C(=N/O)N[C@H]1Cc2ccc(F)cc21` (single isomer, unassigned) [Example 8], for which the IC50 was found to be 43.5 nM on IDO1 [1] and 30.5 nM on IDO1 [2].
With `CS(=N)(=O)CCNC(=O)CNc1nonc1/C(=N/O)N[C@H]1Cc2ccc(F)cc21` (single isomer, unassigned) [Example 13], the half-maximal inhibitory concentration (IC50) at IDO1 [1] stood at 58.2 nM; on IDO1 [2], 95.5 nM.
Turning to `CS(=N)(=O)CCNC(=O)CNc1nonc1/C(=N/O)N[C@H]1Cc2ccc(F)cc21` (single isomer, unassigned) [Example 14], the values for the concentration for half-maximal inhibition (IC50) on IDO1 [1] and on IDO1 [2] were 63.8 nM and 103 nM, respectively.
With `CS(=N)(=O)N1CCC(Nc2nonc2/C(=N/O)N[C@H]2Cc3ccc(F)cc32)CC1` (single isomer, unassigned) [Example 18], the IC50 on IDO1 [1] was 68.3 nM; on IDO1 [2], 69.9 nM.
Turning to `CS(=N)(=O)N1CCC(Nc2nonc2/C(=N/O)N[C@H]2Cc3ccc(F)cc32)CC1` (single isomer, unassigned) [Example 19], the IC50 at IDO1 [1] was 67.2 nM; at IDO1 [2], 62.1 nM.
Regarding `N=S1(=O)CCC1CNc1nonc1/C(=N/O)N[C@H]1Cc2ccc(F)cc21` (single isomer, unassigned) [Example 22], the 50% inhibitory concentration (IC50) worked out at 137 nM on IDO1 [1] and 81.5 nM at IDO1 [2].
For the molecule `N=S1(=O)CCC1CNc1nonc1/C(=N/O)N[C@H]1Cc2ccc(F)cc21` (single isomer, unassigned) [Example 23], the IC50 is 143 nM on IDO1 [1] and 99.4 nM on IDO1 [2].
Regarding `CS(=N)(=O)CCCNc1nonc1/C(=N/O)N[C@H]1Cc2ccc(F)cc21` (single isomer, unassigned) [Example 24], the IC50 was 35.4 nM at IDO1 [1] and 39.9 nM on IDO1 [2].
The corresponding values for `CS(=N)(=O)CCCNc1nonc1/C(=N/O)N[C@H]1Cc2ccc(F)cc21` (single isomer, unassigned) [Example 25] are 31.2 nM and 42.7 nM.
Take `CS(=N)(=O)CC(O)CNc1nonc1/C(=N/O)N[C@H]1Cc2ccc(F)cc21` (single isomer, unassigned) [Example 26]: the IC50 at IDO1 [1] is 53.7 nM; on IDO1 [2] it was 99.9 nM.
For the molecule `CS(=N)(=O)CC(O)CNc1nonc1/C(=N/O)N[C@H]1Cc2ccc(F)cc21` (single isomer, unassigned) [Example 27], the IC50 on IDO1 [1] was determined as 43.3 nM; on IDO1 [2] it was 129 nM.
With `CS(=N)(=O)CC(O)CNc1nonc1/C(=N/O)N[C@H]1Cc2ccc(F)cc21` (single isomer, unassigned) [Example 28], the half-inhibitory concentration (IC50) at IDO1 [1] worked out at 60.7 nM; on IDO1 [2] it was 110 nM.
Turning to `CS(=N)(=O)CC(O)CNc1nonc1/C(=N/O)N[C@H]1Cc2ccc(F)cc21` (single isomer, unassigned) [Example 29], the values for the IC50 at IDO1 [1] and on IDO1 [2] were 70.4 nM and 123 nM, respectively.
The matching figures for `C[S@@](=N)(=O)CCCOc1nonc1/C(=N/O)NC1Cc2ccc(F)cc21` (single isomer, unassigned) [Example 30]: 231 nM and 384 nM.
Consider `C[S@@](=N)(=O)CCCOc1nonc1/C(=N/O)NC1Cc2ccc(F)cc21` (single isomer, unassigned) [Example 31], for which the half-inhibitory concentration (IC50) on IDO1 [1] was 213 nM; on IDO1 [2], 356 nM.
With `CS(=N)(=O)CCCCOc1nonc1/C(=N/O)N[C@H]1Cc2ccc(F)cc21` (single isomer, unassigned) [Example 32], the figures for the IC50 at IDO1 [1] and at IDO1 [2] were 178 nM and 241 nM, respectively.
As to `CS(=N)(=O)CCCCOc1nonc1/C(=N/O)N[C@H]1Cc2ccc(F)cc21` (single isomer, unassigned) [Example 33], the IC50 at IDO1 [1] worked out at 184 nM; on IDO1 [2], 288 nM.
Take `CN=S(C)(=O)CCNc1nonc1/C(=N/O)N[C@H]1Cc2ccc(F)cc21` (single isomer, unassigned) [Example 34]: the IC50 on IDO1 [1] was 59.8 nM; at IDO1 [2], 77 nM.
The matching figures for `CN=S(C)(=O)CCNc1nonc1/C(=N/O)N[C@H]1Cc2ccc(F)cc21` (single isomer, unassigned) [Example 35]: 81.6 nM and 43.2 nM.
As for `CS(=N)(=O)N1CC(O)(CNc2nonc2/C(=N/O)N[C@H]2Cc3ccc(F)cc32)C1` (single isomer, unassigned) [Example 37], the IC50 on IDO1 [1] stood at 108 nM; at IDO1 [2] it was 312 nM.
Turning to `CS(=N)(=O)CCCCNc1nonc1/C(=N/O)N[C@H]1Cc2ccc(F)cc21` (single isomer, unassigned) [Example 38], the half-maximal inhibitory concentration (IC50) stood at 47.2 nM on IDO1 [1] and 26.7 nM on IDO1 [2].
The matching figures for `CS(=N)(=O)CCCCNc1nonc1/C(=N/O)N[C@H]1Cc2ccc(F)cc21` (single isomer, unassigned) [Example 39]: 50.8 nM and 35.7 nM.
Take `CS(=N)(=O)N1CC(Oc2nonc2/C(=N/O)N[C@H]2Cc3ccc(F)cc32)C1` (single isomer, unassigned) [Example 42]: the results for the IC50 on IDO1 [1] and at IDO1 [2] were 56.8 nM and 43.6 nM, respectively.
The corresponding values for `CS(=N)(=O)N1CCC(Nc2nonc2/C(=N/O)N[C@H]2Cc3ccc(F)cc32)C1` (single isomer, unassigned) [Example 43] are 169 nM and 157 nM.
Take `CS(=N)(=O)N1CCC(Nc2nonc2/C(=N/O)N[C@H]2Cc3ccc(F)cc32)C1` (single isomer, unassigned) [Example 44]: the 50% inhibitory concentration (IC50) at IDO1 [1] amounted to 220 nM; on IDO1 [2], 219 nM.
Turning to `CS(=N)(=O)N1CCC(Nc2nonc2/C(=N/O)N[C@H]2Cc3ccc(F)cc32)C1` (single isomer, unassigned) [Example 45], the values for the IC50 at IDO1 [1] and on IDO1 [2] were 107 nM and 85 nM, respectively.
Regarding `CS(=N)(=O)N1CCC(Nc2nonc2/C(=N/O)N[C@H]2Cc3ccc(F)cc32)C1` (single isomer, unassigned) [Example 46], the concentration for half-maximal inhibition (IC50) at IDO1 [1] turned out to be 175 nM; on IDO1 [2] it was 153 nM.
In the case of `CS(=N)(=O)CCOCCNc1nonc1/C(=N/O)N[C@H]1Cc2ccc(F)cc21` (single isomer, unassigned) [Example 47], the values for the IC50 on IDO1 [1] and on IDO1 [2] were 154 nM and 196 nM, respectively.
The corresponding values for `CS(=N)(=O)CCOCCNc1nonc1/C(=N/O)N[C@H]1Cc2ccc(F)cc21` (single isomer, unassigned) [Example 48] are 119 nM and 144 nM.
In the case of `CS(=N)(=O)CC(=O)N1CC(Oc2nonc2/C(=N/O)N[C@H]2Cc3ccc(F)cc32)C1` (single isomer, unassigned) [Example 49], the IC50 is 112 nM on IDO1 [1] and 99.5 nM on IDO1 [2].
The corresponding values for `CS(=N)(=O)CC(=O)N1CC(Oc2nonc2/C(=N/O)N[C@H]2Cc3ccc(F)cc32)C1` (single isomer, unassigned) [Example 50] are 111 nM and 153 nM.
For `CS(=N)(=O)NCCOc1nonc1/C(=N/O)N[C@H]1Cc2ccc(F)cc21` (single isomer, unassigned) [Example 51], the IC50 at IDO1 [1] stood at 262 nM; at IDO1 [2], 317 nM.
The matching figures for `CS(=N)(=O)NCCOc1nonc1/C(=N/O)N[C@H]1Cc2ccc(F)cc21` (single isomer, unassigned) [Example 52]: 175 nM and 148 nM.
On to `CS(=N)(=O)NCC(O)CNc1nonc1/C(=N\O)N[C@H]1Cc2ccc(F)cc21` (single isomer, unassigned) [Example 55], for which the IC50 at IDO1 [1] stood at 92.9 nM; on IDO1 [2] it was 117 nM.
